In patent US8546386B2, “Corrosion and microbial control in hydrocarbonaceous compositions” (Dow Global Technologies LLC, priority 2008, dated 2013):

What was measured:
Type in all cases: cell-based
[1] = tested on: Yarrowia tropicalis ATCC#48138; test: Microbial testing in diesel fuel, plate count
[2] = tested on: Pseudomonas aeruginosa ATCC#33988; test: Microbial testing in diesel fuel, plate count
[3] = tested on: Hormoconis resinae ATCC#20495; test: Microbial testing in diesel fuel, plate count
[4] = tested on: Pseudomonas aeruginosa ATCC#33988; test: Microbial testing in biodiesel fuel, plate count; settings: no biocide
[5] = tested on: Hormoconis resinae ATCC#20495; test: Microbial testing in biodiesel fuel, plate count; settings: no biocide
[6] = amino alcohol 1500 ppm + FS 135 ppm, Day 0
[7] = amino alcohol 1500 ppm + FS 135 ppm, Wk 1
[8] = amino alcohol 1500 ppm + FS 135 ppm, Wk 2
[9] = amino alcohol 1500 ppm + FS 135 ppm, Wk 3
[10] = amino alcohol 1500 ppm + FS 135 ppm, Wk 4
[11] = amino alcohol 1500 ppm + FS 1000 ppm, Day 0
[12] = amino alcohol 1500 ppm + FS 1000 ppm, Wk 1
[13] = amino alcohol 1500 ppm + FS 1000 ppm, Wk 2
[14] = amino alcohol 1500 ppm + FS 1000 ppm, Wk 3
[15] = amino alcohol 1500 ppm + FS 1000 ppm, Wk 4
[16] = amino alcohol 1500 ppm, no biocide, Day 0
[17] = amino alcohol 1500 ppm, no biocide, Wk 1
[18] = amino alcohol 1500 ppm, no biocide, Wk 2
[19] = amino alcohol 1500 ppm, no biocide, Wk 3
[20] = amino alcohol 1500 ppm, no biocide, Wk 4
[21] = amino alcohol 3000 ppm + FS 135 ppm, Day 0
[22] = amino alcohol 3000 ppm + FS 135 ppm, Wk 1
[23] = amino alcohol 3000 ppm + FS 135 ppm, Wk 2
[24] = amino alcohol 3000 ppm + FS 135 ppm, Wk 3
[25] = amino alcohol 3000 ppm + FS 135 ppm, Wk 4
[26] = amino alcohol 3000 ppm + FS 1000 ppm, Day 0
[27] = amino alcohol 3000 ppm + FS 1000 ppm, Wk 1
[28] = amino alcohol 3000 ppm + FS 1000 ppm, Wk 2
[29] = amino alcohol 3000 ppm + FS 1000 ppm, Wk 3
[30] = amino alcohol 3000 ppm + FS 1000 ppm, Wk 4
[31] = amino alcohol 3000 ppm, no biocide, Day 0
[32] = amino alcohol 3000 ppm, no biocide, Wk 1
[33] = amino alcohol 3000 ppm, no biocide, Wk 2
[34] = amino alcohol 3000 ppm, no biocide, Wk 3
[35] = amino alcohol 3000 ppm, no biocide, Wk 4

Q: How did the “Y. tropicalis organism count” value [1, 6] turn out when `CC(C)(N)CO` [AMP, 2-amino-2-methyl-1-propanol] was run?
A: Its value is 2.8E5.

Q: What about the “Y. tropicalis organism count” value [1, 7] of the same molecule?
A: Its value is 8.2E4.

Q: And the “Y. tropicalis organism count” value [1, 8]?
A: The value was 5.6E4.

Q: What about the “Y. tropicalis organism count” value [1, 9] of the same molecule?
A: Its value is 9.0E3.

Q: What about the “Y. tropicalis organism count” value [1, 10] of the same molecule?
A: The value was 5.9E3.

Q: And the “Y. tropicalis organism count” value [1, 11]?
A: Its value is 2.8E5.

Q: And the “Y. tropicalis organism count” value [1, 12]?
A: The value was 5.2E2.

Q: And the “Y. tropicalis organism count” value [1, 13]?
A: The value was less than 10.

Q: And the “Y. tropicalis organism count” value [1, 14]?
A: The value was less than 10.

Q: What about the “Y. tropicalis organism count” value [1, 15] of the same molecule?
A: Its value is less than 10.

Q: And the “Y. tropicalis organism count” value [1, 16]?
A: The value was 2.8E5.

Q: And the “Y. tropicalis organism count” value [1, 17]?
A: Its value is 3.4E5.

Q: What about the “Y. tropicalis organism count” value [1, 18] of the same molecule?
A: Its value is 6.2E5.

Q: And the “Y. tropicalis organism count” value [1, 19]?
A: The value was 8.0E6.

Q: And the “Y. tropicalis organism count” value [1, 20]?
A: The value was 4.3E6.

Q: And the “Y. tropicalis organism count” value [1, 21]?
A: Its value is 2.8E5.

Q: What about the “Y. tropicalis organism count” value [1, 22] of the same molecule?
A: Its value is 5.8E4.

Q: What about the “Y. tropicalis organism count” value [1, 23] of the same molecule?
A: The value was 9.4E3.

Q: And the “Y. tropicalis organism count” value [1, 24]?
A: The value was 4.8E3.

Q: What about the “Y. tropicalis organism count” value [1, 25] of the same molecule?
A: Its value is 5.0E3.

Q: What about the “Y. tropicalis organism count” value [1, 26] of the same molecule?
A: The value was 2.8E5.

Q: And the “Y. tropicalis organism count” value [1, 27]?
A: Its value is 9.4E2.

Q: And the “Y. tropicalis organism count” value [1, 28]?
A: Its value is less than 10.

Q: What about the “Y. tropicalis organism count” value [1, 29] of the same molecule?
A: Its value is less than 10.

Q: And the “Y. tropicalis organism count” value [1, 30]?
A: The value was less than 10.

Q: What about the “Y. tropicalis organism count” value [1, 31] of the same molecule?
A: The value was 2.8E5.

Q: What about the “Y. tropicalis organism count” value [1, 32] of the same molecule?
A: Its value is 1.6E5.

Q: What about the “Y. tropicalis organism count” value [1, 33] of the same molecule?
A: Its value is 5.7E5.

Q: What about the “Y. tropicalis organism count” value [1, 34] of the same molecule?
A: The value was 6.8E5.

Q: What about the “Y. tropicalis organism count” value [1, 35] of the same molecule?
A: The value was 2.0E6.

Q: And the “Ps. aeruginosa organism count” value [2, 6]?
A: The value was 3.7E6.

Q: What about the “Ps. aeruginosa organism count” value [2, 7] of the same molecule?
A: The value was 4.3E5.

Q: And the “Ps. aeruginosa organism count” value [2, 8]?
A: The value was 9.0E4.

Q: And the “Ps. aeruginosa organism count” value [2, 9]?
A: Its value is 1.4E4.

Q: What about the “Ps. aeruginosa organism count” value [2, 10] of the same molecule?
A: Its value is 8.2E3.

Q: What about the “Ps. aeruginosa organism count” value [2, 11] of the same molecule?
A: The value was 3.7E6.

Q: What about the “Ps. aeruginosa organism count” value [2, 12] of the same molecule?
A: Its value is 1.4E2.

Q: And the “Ps. aeruginosa organism count” value [2, 13]?
A: Its value is less than 10.

Q: And the “Ps. aeruginosa organism count” value [2, 14]?
A: The value was less than 10.

Q: And the “Ps. aeruginosa organism count” value [2, 15]?
A: Its value is less than 10.

Q: What about the “Ps. aeruginosa organism count” value [2, 16] of the same molecule?
A: Its value is 3.7E6.

Q: What about the “Ps. aeruginosa organism count” value [2, 17] of the same molecule?
A: Its value is 2.1E6.

Q: And the “Ps. aeruginosa organism count” value [2, 18]?
A: Its value is 5.0E6.

Q: And the “Ps. aeruginosa organism count” value [2, 19]?
A: Its value is 1.0E6.

Q: And the “Ps. aeruginosa organism count” value [2, 20]?
A: The value was 6.8E6.

Q: What about the “Ps. aeruginosa organism count” value [2, 21] of the same molecule?
A: Its value is 3.7E6.

Q: And the “Ps. aeruginosa organism count” value [2, 22]?
A: Its value is 7.0E5.

Q: And the “Ps. aeruginosa organism count” value [2, 23]?
A: The value was 6.8E4.

Q: What about the “Ps. aeruginosa organism count” value [2, 24] of the same molecule?
A: Its value is 1.6E4.

Q: What about the “Ps. aeruginosa organism count” value [2, 25] of the same molecule?
A: Its value is 1.1E4.

Q: And the “Ps. aeruginosa organism count” value [2, 26]?
A: The value was 3.7E6.

Q: What about the “Ps. aeruginosa organism count” value [2, 27] of the same molecule?
A: The value was less than 10.

Q: What about the “Ps. aeruginosa organism count” value [2, 28] of the same molecule?
A: The value was less than 10.

Q: And the “Ps. aeruginosa organism count” value [2, 29]?
A: Its value is less than 10.

Q: What about the “Ps. aeruginosa organism count” value [2, 30] of the same molecule?
A: Its value is less than 10.

Q: And the “Ps. aeruginosa organism count” value [2, 31]?
A: The value was 3.7E6.

Q: And the “Ps. aeruginosa organism count” value [2, 32]?
A: The value was 8.6E5.

Q: What about the “Ps. aeruginosa organism count” value [2, 33] of the same molecule?
A: Its value is 4.0E6.

Q: What about the “Ps. aeruginosa organism count” value [2, 34] of the same molecule?
A: Its value is 7.8E6.

Q: What about the “Ps. aeruginosa organism count” value [2, 35] of the same molecule?
A: Its value is 7.2E6.

Q: What about the “H. resinae organism count” value [3, 6] of the same molecule?
A: The value was 5.3E5.

Q: And the “H. resinae organism count” value [3, 7]?
A: The value was 6.7E4.

Q: What about the “H. resinae organism count” value [3, 8] of the same molecule?
A: Its value is 1.3E4.

Q: What about the “H. resinae organism count” value [3, 9] of the same molecule?
A: The value was 5.8E3.

Q: What about the “H. resinae organism count” value [3, 10] of the same molecule?
A: Its value is 4.7E3.

Q: What about the “H. resinae organism count” value [3, 11] of the same molecule?
A: Its value is 5.3E5.

Q: What about the “H. resinae organism count” value [3, 12] of the same molecule?
A: Its value is 9.2E2.

Q: And the “H. resinae organism count” value [3, 13]?
A: Its value is less than 10.

Q: What about the “H. resinae organism count” value [3, 14] of the same molecule?
A: Its value is less than 10.

Q: And the “H. resinae organism count” value [3, 15]?
A: Its value is less than 10.

Q: And the “H. resinae organism count” value [3, 16]?
A: The value was 5.3E5.

Q: And the “H. resinae organism count” value [3, 17]?
A: Its value is 2.0E5.

Q: What about the “H. resinae organism count” value [3, 18] of the same molecule?
A: Its value is 5.8E5.

Q: What about the “H. resinae organism count” value [3, 19] of the same molecule?
A: Its value is 8.1E5.

Q: And the “H. resinae organism count” value [3, 20]?
A: The value was 7.2E5.

Q: And the “H. resinae organism count” value [3, 21]?
A: Its value is 5.3E5.

Q: What about the “H. resinae organism count” value [3, 22] of the same molecule?
A: Its value is 5.7E4.

Q: What about the “H. resinae organism count” value [3, 23] of the same molecule?
A: Its value is 8.6E3.

Q: What about the “H. resinae organism count” value [3, 24] of the same molecule?
A: Its value is 7.6E3.

Q: What about the “H. resinae organism count” value [3, 25] of the same molecule?
A: The value was 5.8E3.

Q: What about the “H. resinae organism count” value [3, 26] of the same molecule?
A: The value was 5.3E5.

Q: What about the “H. resinae organism count” value [3, 27] of the same molecule?
A: The value was 7.0E3.

Q: What about the “H. resinae organism count” value [3, 28] of the same molecule?
A: The value was less than 10.

Q: What about the “H. resinae organism count” value [3, 29] of the same molecule?
A: The value was less than 10.

Q: What about the “H. resinae organism count” value [3, 30] of the same molecule?
A: The value was less than 10.

Q: And the “H. resinae organism count” value [3, 31]?
A: The value was 5.3E5.

Q: What about the “H. resinae organism count” value [3, 32] of the same molecule?
A: The value was 3.6E5.

Q: And the “H. resinae organism count” value [3, 33]?
A: Its value is 7.3E5.

Q: What about the “H. resinae organism count” value [3, 34] of the same molecule?
A: Its value is 1.1E6.

Q: What about the “H. resinae organism count” value [3, 35] of the same molecule?
A: The value was 2.3E6.

Q: `CCCCCCCC/C=C\CCCCCCCC(=O)O.OCCN(CCO)CCO` [TEA/Oleic] was tested. Which “Bacteria (Ps. aeruginosa) count” value ([4]; additive 500 ppm, Week 1) did it give?
A: The value was 7.30E+04 Bact/ml.

Q: And the “Bacteria (Ps. aeruginosa) count” value ([4]; additive 500 ppm, Week 2)?
A: The value was 5.00E+05 Bact/ml.

Q: What about the “Bacteria (Ps. aeruginosa) count” value ([4]; additive 500 ppm, Week 3) of the same molecule?
A: The value was 1.20E+06 Bact/ml.

Q: And the “Bacteria (Ps. aeruginosa) count” value ([4]; additive 500 ppm, Week 4)?
A: The value was 1.10E+06 Bact/ml.

Q: And the “Bacteria (Ps. aeruginosa) count” value ([4]; additive 1500 ppm, Week 1)?
A: The value was 2.00E+03 Bact/ml.

Q: And the “Bacteria (Ps. aeruginosa) count” value ([4]; additive 1500 ppm, Week 2)?
A: The value was 9.00E+04 Bact/ml.

Q: What about the “Bacteria (Ps. aeruginosa) count” value ([4]; additive 1500 ppm, Week 3) of the same molecule?
A: Its value is 2.20E+05 Bact/ml.

Q: And the “Bacteria (Ps. aeruginosa) count” value ([4]; additive 1500 ppm, Week 4)?
A: Its value is 8.30E+04 Bact/ml.

Q: And the “Mold (H. resinae) count” value ([5]; additive 500 ppm, Week 1)?
A: Its value is 8.20E+04 Mold/ml.

Q: What about the “Mold (H. resinae) count” value ([5]; additive 500 ppm, Week 2) of the same molecule?
A: The value was 3.70E+05 Mold/ml.

Q: And the “Mold (H. resinae) count” value ([5]; additive 500 ppm, Week 3)?
A: The value was 4.30E+05 Mold/ml.

Q: What about the “Mold (H. resinae) count” value ([5]; additive 500 ppm, Week 4) of the same molecule?
A: Its value is 6.20E+05 Mold/ml.

Q: What about the “Mold (H. resinae) count” value ([5]; additive 1500 ppm, Week 1) of the same molecule?
A: The value was 3.70E+02 Mold/ml.

Q: What about the “Mold (H. resinae) count” value ([5]; additive 1500 ppm, Week 2) of the same molecule?
A: The value was 1.30E+04 Mold/ml.

Q: What about the “Mold (H. resinae) count” value ([5]; additive 1500 ppm, Week 3) of the same molecule?
A: The value was 2.00E+04 Mold/ml.

Q: What about the “Mold (H. resinae) count” value ([5]; additive 1500 ppm, Week 4) of the same molecule?
A: Its value is 4.70E+03 Mold/ml.
